Ends that are not written are not given here.
Experiments:
[1] = tested on: Human coronary artery smooth muscle cells (HCA SMC); assay: Gel compaction by smooth muscle cells in collagen gels; type: cell-based; settings: Days 3 and 5
Experimental: Human coronary artery smooth muscle cells (HCA SMC) (Cascade Biologics) were cultured in growth medium (Medium 231 supplemented with smooth muscle growth factor). Cells from passage 3 were used for all experiments. Differentiation medium (Medium 231 supplemented with 1% FBS and 1× pen/strep) was used for all experiments unless otherwise noted.
Collagen gels were prepared with each additive as described with the exception that the 1×PBS example addition was omitted to accommodate the addition of cells in media. After incubating on ice for 30 min, HCA SMCs in differentiation medium were added to the gel solutions to a final concentration of 1×10^6 cells/mL. Gels were formed in quadruplicate in 48-well non-tissue culture treated plates (Costar) for 6 hrs before adding 500 μL/well differentiation medium. Gels were freed from the well edges after 24 hrs. Medium was changed every 2-3 days and images for compaction were taken at the same time points using a Gel Doc System (Bio-Rad). The cross-sectional area of circular gels correlating to degree of compaction was determined using ImageJ software (NIH). Gels containing no cells were used as a negative control and cells in collagen gels absent additive were used as a positive control. […] By day 10 all gels had compacted to approximately 10% of the original gel area, and differences between additives were small.

[2] = tested on: Long-Evans rats; assay: Rat incisional model, visual scar scoring (visible scar length); type: in vivo
Experimental: (§1) Using sterile techniques, longitudinal wounds were incised on shaved dorsal skin of the rats. A 4 cm incision was cut through the panniculus down to the skeletal musculature, and a 250 μL single dose of either 10 mg/mL hyaluronic acid (HA) or HA+DS-SILY was applied to the open wound by a syringe. DS-SILY was tested at 0.5, 1, and 2.5 mg/mL mixed with HA. The incision was then sutured closed and animals were returned to individual cages and monitored for complications. Negative control rats received no treatment and were treated identically. A pilot study was performed (n=3) at time points 3, 7, 10, 14, and 21 days, followed by a higher powered study (n=9) for 21 and 28 day time points.
Photographs of scars were taken at the time of necropsy using a digital camera with predetermined manual settings mounted on a camera stand to standardize focal distance
(FIG. 36). A scale bar was included in each image and was used to determine the visible scar length. At the 21 and 28-day times points, five blinded observers traced the visible scar length using ImageJ software (NIH) to give a quantitative measure of visual scar healing.

[3] = tested on: HCA SMCs; assay: Measurement of elastin (Fastin assay) in cell-seeded collagen gels; type: cell-based, human; settings: gels cultured for 10 days
Experimental: Collagen gels seeded with HCA SMCs were prepared as described in EXAMPLE 30. Differentiation medium was changed every three days and gels were cultured for 10 days. Collagen gels containing no cells were used as a control. Gels were rinsed in 1×PBS overnight to remove serum protein, and gels were tested for elastin content using the Fastin elastin assay per manufacturers protocol (Biocolor, County […].). Briefly, gels were solubilized in 0.25 M oxalic acid by incubating at 100° C. for 1 hr. Elastin was precipitated and samples were then centrifuged at 11,000×g for 10 min. The solubilized collagen supernatant was removed and the elastin pellet was stained by Fastin Dye Reagent for 90 min at room temperature. Samples were centrifuged at 11,000×g for 10 min and unbound dye in the supernatant was removed. Dye from the elastin pellets was released by the Fastin Dye Dissociation Reagent, and 100 μL samples were transferred to a 96-well plate (Costar). Absorbance was measured at 513 nm, and elastin content was calculated from an α-elastin standard curve.

[4] = target: T1, collagen I (Bos taurus, UniProt P02453+P02465); assay: Cryo-SEM measurements on collagen I, fibril diameter; type: biochemical; settings: 4 mg/mL collagen, 10:1 collagen:treatment, cryo-SEM 20,000×
T1 construct: purchased Inamed, Freemont, Calif; Nutragen
T1 sequence (P02453 162-1217 limits assumed): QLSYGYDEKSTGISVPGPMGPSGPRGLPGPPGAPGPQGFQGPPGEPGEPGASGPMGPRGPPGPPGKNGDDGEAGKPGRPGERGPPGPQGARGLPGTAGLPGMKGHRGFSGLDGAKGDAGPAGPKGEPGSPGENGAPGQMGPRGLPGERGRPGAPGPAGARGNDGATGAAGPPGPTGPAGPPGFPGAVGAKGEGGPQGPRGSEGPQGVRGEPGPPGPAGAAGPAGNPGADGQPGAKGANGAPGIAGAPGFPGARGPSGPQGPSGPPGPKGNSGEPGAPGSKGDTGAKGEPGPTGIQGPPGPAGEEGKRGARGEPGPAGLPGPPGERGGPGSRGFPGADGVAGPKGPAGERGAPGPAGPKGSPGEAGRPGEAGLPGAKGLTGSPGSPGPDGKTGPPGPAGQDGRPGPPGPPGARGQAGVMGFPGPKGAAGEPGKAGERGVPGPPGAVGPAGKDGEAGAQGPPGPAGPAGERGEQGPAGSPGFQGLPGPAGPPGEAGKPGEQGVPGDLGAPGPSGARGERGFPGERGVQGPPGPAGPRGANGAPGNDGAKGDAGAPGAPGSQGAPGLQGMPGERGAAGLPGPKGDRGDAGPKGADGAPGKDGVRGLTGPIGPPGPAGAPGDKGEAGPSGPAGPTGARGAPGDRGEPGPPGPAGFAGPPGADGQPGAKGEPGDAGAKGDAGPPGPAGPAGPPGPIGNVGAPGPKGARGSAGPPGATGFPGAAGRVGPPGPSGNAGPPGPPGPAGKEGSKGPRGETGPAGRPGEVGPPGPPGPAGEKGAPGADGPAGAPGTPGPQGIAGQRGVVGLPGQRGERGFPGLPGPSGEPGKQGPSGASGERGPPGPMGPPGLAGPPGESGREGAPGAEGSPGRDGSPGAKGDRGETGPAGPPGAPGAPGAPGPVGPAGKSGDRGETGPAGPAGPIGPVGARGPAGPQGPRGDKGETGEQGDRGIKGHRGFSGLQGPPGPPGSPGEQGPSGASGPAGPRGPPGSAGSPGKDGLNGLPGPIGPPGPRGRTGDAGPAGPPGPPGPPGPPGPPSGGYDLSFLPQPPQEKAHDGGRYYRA
T1 sequence (P02465 80-1117 limits assumed): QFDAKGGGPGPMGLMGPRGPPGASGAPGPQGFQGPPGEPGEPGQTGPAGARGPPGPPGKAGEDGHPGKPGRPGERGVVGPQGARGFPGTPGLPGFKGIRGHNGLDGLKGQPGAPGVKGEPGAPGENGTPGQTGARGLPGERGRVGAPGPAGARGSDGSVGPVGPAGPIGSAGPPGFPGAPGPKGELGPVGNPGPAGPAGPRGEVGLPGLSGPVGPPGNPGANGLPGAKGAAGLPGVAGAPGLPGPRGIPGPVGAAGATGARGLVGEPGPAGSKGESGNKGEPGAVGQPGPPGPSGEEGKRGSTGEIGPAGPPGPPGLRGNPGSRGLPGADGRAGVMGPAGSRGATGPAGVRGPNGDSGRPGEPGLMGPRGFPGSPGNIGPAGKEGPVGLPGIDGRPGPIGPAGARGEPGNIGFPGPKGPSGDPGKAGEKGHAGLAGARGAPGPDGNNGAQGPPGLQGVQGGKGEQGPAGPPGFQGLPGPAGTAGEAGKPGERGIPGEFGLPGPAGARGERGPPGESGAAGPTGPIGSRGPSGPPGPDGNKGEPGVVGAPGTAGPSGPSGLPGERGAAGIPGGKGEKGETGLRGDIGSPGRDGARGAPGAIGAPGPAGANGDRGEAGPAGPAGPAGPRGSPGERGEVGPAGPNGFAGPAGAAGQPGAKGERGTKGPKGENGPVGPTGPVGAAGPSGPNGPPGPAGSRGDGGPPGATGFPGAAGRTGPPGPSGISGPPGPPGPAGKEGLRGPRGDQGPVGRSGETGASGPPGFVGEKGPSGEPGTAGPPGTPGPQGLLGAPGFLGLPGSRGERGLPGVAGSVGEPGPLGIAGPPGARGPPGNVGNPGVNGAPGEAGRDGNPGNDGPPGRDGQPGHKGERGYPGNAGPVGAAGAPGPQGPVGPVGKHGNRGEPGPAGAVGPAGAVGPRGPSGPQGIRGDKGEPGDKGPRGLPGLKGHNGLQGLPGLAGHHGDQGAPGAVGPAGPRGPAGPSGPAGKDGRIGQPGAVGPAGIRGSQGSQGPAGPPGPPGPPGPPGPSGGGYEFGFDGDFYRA
Experimental: Gels were made with Nutragen collagen (Inamed, Freemont, Calif.) at a final concentration of 4 mg/mL collagen. Nutragen stock is 6.4 mg/mL in 10 mM HCl. Gel preparation was performed on ice, and fresh samples were made before each test. The collagen solution was adjusted to physiologic pH and salt concentration, by adding appropriate volumes of 10×PBS (phosphate buffered saline), 1×PBS, and 1M NaOH. For most experiments, samples of DS, decorin, DS-SILY, or DS-Dc13 were added at a 10:1 collagen:treatment molar ratio by a final 1×PBS addition (equal volumes across treatments) in which the test samples were dissolved at appropriate concentrations. In this way, samples are constantly kept at pH 7.4 and physiologic salt concentration. Collagen-alone samples received a 1×PBS addition with no sample dissolved. Fibrillogenesis will be induced by incubating neutralized collagen solutions at 37° C. overnight in a humidified chamber to avoid dehydration. Gel solutions with collagen:treatment molar ratios of other than 10:1 were prepared similarly.
Gels for cryo-SEM were formed, as in EXAMPLE 16, directly on the SEM stage and incubated at 37° C. overnight. The stages were then secured in a cryo-holder and plunged into liquid nitrogen slush. Samples were then transferred to a Gatan Alto 2500 pre-chamber cooled to −170° C. under vacuum. A free-break surface was created with a cooled scalpel, and each sample evaporated under sublimation conditions for 20 min. The sample was coated by platinum sputter coating for 120 s. Samples were transferred to the cryo-stage at −130° C. and regions with similar orientation were imaged for comparison across treatments. Analysis of the images was performed to determine the fibril diameter distribution, presented in histograms adjacent the corresponding image in FIG. 14, and average fibril diameter, FIG. 17 an 18;. Fibril diameter was calculated using ImageJ software (NIH) measuring individual fibrils by hand (drawing a line across fibrils and measuring its length after properly setting the scale). At least 45 independent fibril measurement were recorded for average fibril diameter calculations.

[5] = tested on: Long-Evans rats; assay: Rat incisional model, tensile testing of scar (scar strength); type: in vivo
Experimental: as §1
At a predetermined time after surgery (3-28 days) the animals were euthanized. Photographs of the incision were obtained, and the dermal wound including a 1 inch area around the wound edge was excised and cut into 4mm wide strips using a custom cutting device with fixed blades. Relevant tissues were harvested for tensile strength testing and histologic study.
Based on these findings, a full powered (n=9 rats/treatment) was performed using the later time points 21-day and 28-day, and comparing the same low dose, but modifying the high dose to 0.25 mg DS-SILY. DS-SILY was delivered with HA in each study and the negative control received no treatment.
Following necropsy, 4 mm skin strips (n=4 per animal) were placed in 1×PBS and kept at 4° C. for up to 6 hours. The wound breaking strength was measured at time points from 3 to 21 days. Skin samples were loaded onto a mechanical testing system (Test Resources, mode:100P/Q) such that the incision was orthogonal to the grips. Samples were loaded under tension with a rate of 5 mm/min to failure. […] No differences were observed between the low and high peptidoglycan concentrations.

“DS-SILY: collagen-binding peptidoglycan in which a single SILY peptide was conjugated to dermatan sulfate via PDPH (RRANAALKAGELYKSILYGC; also: single peptide conjugated to dermatan sulfate via PDPH, site not given here)” was tested, and the “gel compaction at early time points” value [1] was “significantly compacted more than gels made of collagen alone or collagen with dermatan sulfate”, the visible scar length ([2]; 21 days, both doses (0.125 mg, 0.25 mg)) was “decreased visible scar length measured by 5 blinded observers was significant” and the visible scar length ([2]; 28 days, high dose (0.25 mg)) was “not significant at 28 days compared to HA control”. For the same substance, the elastin production [3] was “significantly increased elastin production over all samples”, the average fibril diameter [4] was “significant decrease in average fibril diameter” and the wound breaking strength ([5]; 21 days post-injury, vs untreated or HA treated wounds) was “significant increase in wound breaking strength when compared to untreated or HA treated wounds”. The scar strength ([5]; full powered study, 0.125 mg and 0.25 mg with HA, 21-days) was “increased scar strength over no treatment”, the scar strength ([5]; full powered study, 0.125 mg and 0.25 mg with HA, 28-days) was “significantly higher compared to the HA control, but was not different from no treatment” and the scar strength ([5]; pilot study, low (0.125 mg) and high (0.625 mg) dose delivered with HA, 21-days) was “significantly increases scar strength”.
